Assay results taken from patent publication US20250134857A1, “Fast Acting Joint Health Composition and Use Thereof” (Lonza Greenwood LLC, priority 2022, published 2025).

Experiments:
Type in all cases: cell-based, Human
IL-6 = IL-6 expression by real-time PCR in IL-1β-treated SW1353 cells; settings: for IL-6 Percent Change over Control: 1 h pretreatment, then IL-1β (5 ng/ml) 24 hr
Protocol: (§1) Human SW1353 chondrosarcoma cell line (ATCC, HTB-94) were grown in monolayer at 37° C., in a humidified atmosphere under 5% CO2, with Dulbecco's Modified Eagle Medium (DMEM) supplemented with 10% (v/v) fetal bovine serum (FBS) and 100 U/ml penicillin-streptomycin solution until 80% confluency with 0.1% v/v DMSO as a vehicle control.
(§2) The SW1353 cells were starved for 24 h with serum-free DMEM medium (containing 100 U/ml penicillin-streptomycin), and then pretreated with various concentrations of andrographolide and tamarind seed extract at three concentrations (in triplicate) for one hour, followed by addition of IL-1β (5 ng/ml) in culture media for an additional 24 hr. In addition, sulforaphane was tested as a positive control in the same manner as andrographolide and TSE, which is illustrated in FIG. 1E.
(§3) Real-time PCR was performed with the use of the SYBR Green PCR Master Mix (Applied Biosystems) according to the manufacturer's protocol and amplified on the ABI Prism 7000 sequence detection system. The results are illustrated in FIGS. 1A-1E, and in Table 1.

IL-1A = IL-1A expression by real-time PCR in IL-1β-treated SW1353 cells; settings: for IL-1A Percent Change over Control: 1 h pretreatment, then IL-1β (5 ng/ml) 24 hr
Protocol: as §1, §2, §3

MMP-13 = MMP-13 expression by real-time PCR in IL-1β-treated SW1353 cells; settings: for MMP-13 Percent Change over Control: 1 h pretreatment, then IL-1β (5 ng/ml) 24 hr
Protocol: as §1, §2, §3

SOX-9 = SOX-9 expression by real-time PCR in IL-1β-treated SW1353 cells; settings: 1 h pretreatment, then IL-1β (5 ng/ml) 24 hr
Protocol: as §1, §2, §3

COX-2 = COX-2 expression by real-time PCR in IL-1β-treated SW1353 cells; settings: 1 h pretreatment, then IL-1β (5 ng/ml) 24 hr
Protocol: as §1, §2
Real-time PCR was performed with the use of the SYBR Green PCR Master Mix (Applied Biosystems) according to the manufacturer's protocol and amplified on the ABI Prism 7000 sequence detection system.

[1] = summary of Example 1, SW1353 cells, IL-1β

SMILES: C=C1CC[C@@H]2[C@](C)(CO)[C@H](O)CC[C@@]2(C)[C@@H]1C/C=C1/C(=O)OC[C@H]1O [Andrographolide, andrographolide]
- IL-6 Percent Change over Control (IL-6; Dose 2.78): 46.7%
- IL-6 Percent Change over Control (IL-6; Dose 8.33): 62.8%
- IL-6 Percent Change over Control (IL-6; Dose 25): 101.3%
- IL-6, result in words (IL-6; [1]): significant reduction
- IL-1A Percent Change over Control (IL-1A; Dose 2.78): 28.3%
- IL-1A Percent Change over Control (IL-1A; Dose 8.33): 46.1%
- IL-1A Percent Change over Control (IL-1A; Dose 25): 73.1%
- IL-1, result in words (IL-1A; [1]): significant reduction
- MMP-13 Percent Change over Control (MMP-13; Dose 2.78): 93.0%
- MMP-13 Percent Change over Control (MMP-13; Dose 8.33): 87.2%
- MMP-13 Percent Change over Control (MMP-13; Dose 25): 108.2%
- MMP-13, result in words (MMP-13; [1]): significant reduction
- SOX-9 Percent Change over Control (SOX-9; Dose 2.78): 14.2%
- SOX-9 Percent Change over Control (SOX-9; Dose 8.33): 10.8%
- SOX-9 Percent Change over Control (SOX-9; Dose 25): 40.5%
- COX-2 Percent Change over Control (COX-2; Dose 2.78): 27.1%
- COX-2 Percent Change over Control (COX-2; Dose 8.33): −22.8%
- COX-2 Percent Change over Control (COX-2; Dose 25): 59.8%
